Read-outs that look alike come from different tables or passages of the source.
Columns and labels:
[1] = test system: Fusarium nivale (var. majus); experiment: whole plant or invertebrate; type: in vivo; details: Microdochium nivale, in Triticum aestivum, 120 h, read-out: % Wirkungsgrad (activity level)
[2] = test system: Venturia inaequalis; experiment: Example O: in vivo test on Venturia inaequalis (apple scab/protective); details: 240 h, protective, assessment 10 days after inoculation, read-out: % Wirkungsgrad
In short: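 Protective test: active substance mixed with solvent and alkylaryl polyglycol ether emulsifier, diluted with water, and sprayed on young plants at the stated dosage before Venturia inaequalis inoculation. Scab assessed 10 days after inoculation.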

[3] = test system: Cochliobolus miyabeanus; experiment: Example X: in vivo test on Cochliobolus miyabeanus (brown spot disease, rice/protective); details: Bipolaris oryzae, 96 h, read-out: % Activity level
[4] = test system: Rhynchosporium secalis; experiment: Example S: in vivo test on Rhynchosporium secalis (leaf scald in barley/protective); details: 336 h, barley, protective, 1000 ppm active substance, assessed 14 days after inoculation, read-out: % Wirkungsgrad (activity level)
In short: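 Protective test: young barley plants were sprayed with active substance in dimethylacetamide/alkylaryl polyglycol ether emulsion diluted with water. Once dry, plants were inoculated with R. secalis spore suspension. Assessment was made 14 days after inoculation.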

[5] = test system: Fusarium graminearum; experiment: microbe, parasite or virus in culture; type: cell-based
[6] = test system: Mycosphaerella graminicola; experiment: Example G: in vivo test on Mycosphaerella graminicola (wheat leaf blotch disease); details: Zymoseptoria tritici, wheat plants sprayed 24 hours before inoculation, scored after 21 to 28 days, read-out: % Wirkungsgrad
In short: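 Scipion wheat at first-leaf stage (10 cm) was sprayed with aqueous active-substance suspension, then inoculated 24 hours later with Mycosphaerella graminicola spores (500,000 spores per ml) from 7 day-old culture. Disease was scored after 21 to 28 days against untreated sprayed controls.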

[7] = test system: Leptosphaeria nodorum; experiment: Example Q: in vivo test on Leptosphaeria nodorum (glume blotch in wheat/protective); details: Parastagonospora nodorum, 192 h, wheat, protective, assessment 8 days after inoculation, read-out: % Wirkungsgrad
In short: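 Protective test: young wheat plants sprayed with compound formulated in N,N-dimethylacetamide plus alkylaryl polyglycol ether emulsifier, diluted in water to the stated dose. After drying, plants inoculated with L. nodorum spore suspension; disease assessed 8 days post-inoculation.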

[8] = test system: Sphaerotheca fuliginea; experiment: Example L: in vivo test on Sphaerotheca fuliginea (powdery mildew on cucumber/protective); details: Podosphaera fuliginea, 168 h, cucumber, protective, assessment 7 days after inoculation, read-out: % Wirkungsgrad
In short: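 Young cucumber plants sprayed at stated dosage with compound in DMF/alkylaryl polyglycol ether emulsifier diluted in water; inoculated with S. fuliginea spores one day later. Kept in greenhouse at 70% relative humidity, 23° C; protective activity assessed 7 days after inoculation.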

[9] = test system: Alternaria brassicae; experiment: Example C: in vivo test on Alternaria brassicae (leaf spot disease on radishes); details: 500 ppm; radish plants sprayed 24 hours before inoculation; scored after 6-7 days
Description: In Vivo Test on Alternaria Brassicae (Leaf Spot Disease on Radishes) An aqueous suspension of the active substance was prepared by homogenization of a mixture of acetone/Tween/dimethyl sulphoxide and subsequent dilution with water to the desired concentration. Radish plants (variety: Pernot) are sown in cultivation dishes on a peat-pozzolanic earth substrate (50/50) at 18-20° C. and sprayed at the cotyledon stage with the aqueous suspension described above. As a control, plants are sprayed with an aqueous solution with no active substance. After 24 hours, the plants are inoculated by spraying with an aqueous suspension of Alternaria brassicae spores (40,000 spores per ml). The spores are derived from a 12 to 13 day-old culture. The inoculated radish plants are incubated for 6-7 days at ca. 18° C. in a humid atmosphere. After 6-7 days they are scored in comparison with the control plants.

[10] = physchem; details: LogPA (logP of the stated pure compound or, in a mixture, of the main isomer, 1-substituted 3-aryl-1H-pyrazole)
[11] = test system: Peronospora parasitica; experiment: Example A: in vivo test on Peronospora parasitica (downy mildew on white cabbage); details: Hyaloperonospora parasitica, 120 h, cabbage plants sprayed 24 hours before inoculation, scored after 5 days, read-out: % Wirkungsgrad
In short: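 Cabbage plants (Eminence) at cotyledon stage sprayed with aqueous compound suspension (acetone/Tween/DMSO, diluted with water), then inoculated 24 h later with P. parasitica spores at 50,000 spores/ml. After 5 days in moist atmosphere at ca. 20 °C, disease scored against untreated sprayed controls.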

[12] = test system: Phakopsora pachyrhizi; experiment: Example Z: in vivo test on Phakopsora pachyrhizi (soya bean rust/protective); details: soya bean rust, protective, 250 ppm active substance, assessed 11 days after inoculation
[13] = 72 h, read-out: % Inhibition des Pilzwachstums bei 50 μM
[14] = 168 h, read-out: % Inhibition der DON/AcDON produktion bei 50 μM

| SMILES | pest or weed control at 1000 ppm [1] [%] | pest or weed control at 100 ppm [2] [%] | pest or weed control at 250 ppm [3] [%] | pest or weed control at 1000 ppm [4] [%] | inhibition at 50 µM [5, 13] [%] | inhibition at 50 µM [5, 14] [%] | pest or weed control at 500 ppm [6] [%] | pest or weed control at 1000 ppm [7] [%] | pest or weed control at 500 ppm [8] [%] | % Activity level [9] [%] | chromatographic logP [10] | pest or weed control at 500 ppm [11] [%] | % Activity level [12] [%] |
| --- | --- | --- | --- | --- | --- | --- | --- | --- | --- | --- | --- | --- | --- |
| CC(C)n1cc(-c2ccnc(NC(=O)C3CC3)c2)c(-c2ccc(F)cc2)n1 [Compound 86] | 100 | 96 | 80 | 86 | 94 | 98 | 94 | 100 | 100 | 75 | 2.07 | 100 | – |
| CC(C)Cn1cc(-c2ccncc2)c(-c2ccc(F)cc2)n1 [Compound 1] | 92 | 99 | 85 | – | – | – | – | 100 | – | 94 | 1.63 | 100 | 91 |
| CC(C)C(=O)Nc1cc(-c2cn(C(C)C)nc2-c2ccc(F)cc2)ccn1 [Compound 84] | 100 | 100 | 93 | 90 | 92 | 99 | 98 | 100 | 100 | 75 | 2.5 | 100 | 98 |
| CCC(=O)Nc1cc(-c2cn(C(C)C)nc2-c2ccc(F)cc2)ccn1 [Compound 85] | 100 | 88 | 90 | – | 100 | 99 | – | 100 | 100 | – | 2.15 | 100 | – |
